Laboratory results published in paper PMC8815882, “Screening the pandemic response box identified benzimidazole carbamates, Olorofim and ravuconazole as promising drug candidates for the treatment of eumycetoma” (PLoS Neglected Tropical Diseases, 2022).
Like-named read-outs stand apart in the source and are kept apart here.

Tested on: M. mycetomatis genome strain MM55
Test: CLSI M38-A2 based in vitro susceptibility screening (XTT or resazurin), growth at fixed concentration
Type: cell-based, Madurella mycetomatis
Settings: Madurella mycetomatis
[1] = 25 uM, replicate A, read-out: Percentage survival at 25um, 25 um A
[2] = 25 uM, replicate B, read-out: Percentage survival at 25um, 25 uM B
[3] = 25 uM, replicate C, read-out: Percentage survival at 25um, 25 uM C
[4] = mean of replicates, read-out: Percentage survival at 100um, 100 uM mean
[5] = 25 uM, mean of three, M. mycetomatis MM55, read-out: Percentage survival at 25um, 25 uM mean
[6] = 25 uM, replicate A, M. mycetomatis MM55, read-out: Percentage survival at 25um, 25 um A
[7] = 25 uM, replicate B, M. mycetomatis MM55, read-out: Percentage survival at 25um, 25 uM B
[8] = 25 uM, replicate C, M. mycetomatis MM55, read-out: Percentage survival at 25um, 25 uM C
[9] = mean of three, M. mycetomatis MM55, read-out: Percentage survival at 100um, 100 uM mean
[10] = replicate 1, M. mycetomatis MM55, read-out: Percentage survival at 100um, 100 uM A (first replicate column)
[11] = replicate 2, M. mycetomatis MM55, read-out: Percentage survival at 100um, 100 uM A (second replicate column)
[12] = replicate 3, M. mycetomatis MM55, read-out: Percentage survival at 100um, 100 uM A (third replicate column)
[13] = 25 uM, mean of three replicates, read-out: Percentage survival at 25um, 25 uM mean
[14] = first replicate column, read-out: Percentage survival at 100um, 100 uM A
[15] = mean of three replicates, read-out: Percentage survival at 100um, 100 uM mean
[16] = second replicate column, read-out: Percentage survival at 100um, 100 uM A
[17] = third replicate column, read-out: Percentage survival at 100um, 100 uM A
[18] = replicate 1, read-out: Percentage survival at 100um, 100 uM A (first replicate column)
[19] = replicate 2, read-out: Percentage survival at 100um, 100 uM A (second replicate column)
[20] = replicate 3, read-out: Percentage survival at 100um, 100 uM A (third replicate column)

| SMILES | activity at 25 µM [1] | activity at 25 µM [2] | activity at 25 µM [3] | activity at 25 µM [13] | activity at 100 µM [14] | activity at 100 µM [15] | activity at 100 µM [16] | activity at 100 µM [17] | also measured |
| --- | --- | --- | --- | --- | --- | --- | --- | --- | --- |
| C[N+]1(C)CCCC(OC(=O)C(O)(c2ccccc2)c2ccccc2)C1 (centres unmarked) [MMV002676] | 73.4% | 85.9% | 78.5% | – | – | – | – | – | activity at 25 µM (25 uM, mean of replicates, read-out: Percentage survival at 25um, 25 uM mean): 79.3%; activity at 100 µM [4]: 79.9%; activity at 100 µM (replicate 1, read-out: Percentage survival at 100um, 100 uM A): 85.5%; activity at 100 µM (replicate 2, read-out: Percentage survival at 100um, 100 uM A): 72.6%; activity at 100 µM (replicate 3, read-out: Percentage survival at 100um, 100 uM A): 81.5% |
| Cc1cc(C2CCCCC2)n(O)c(=O)c1 [MMV002731] | -3.44% | 96.3% | 3.22% | – | – | – | – | – | activity at 25 µM (25 uM, mean, read-out: Percentage survival at 25um, 25 uM mean): 32%; activity at 100 µM (mean, read-out: Percentage survival at 100um, 100 uM mean): 5.09%; activity at 100 µM (replicate (first column), read-out: Percentage survival at 100um, 100 uM A): -2.39%; activity at 100 µM (replicate (second column), read-out: Percentage survival at 100um, 100 uM A): 6.16%; activity at 100 µM (replicate (third column), read-out: Percentage survival at 100um, 100 uM A): 11.5% |
| Cc1onc(-c2ccccc2Cl)c1C(=O)N[C@@H]1C(=O)N2[C@@H]1SC(C)(C)[C@@H]2C(=O)O [MMV002740] | – | – | – | – | – | – | – | – | activity at 25 µM [5]: 65.2%; activity at 25 µM [6]: 60.8%; activity at 25 µM [7]: 53.9%; activity at 25 µM [8]: 80.9%; activity at 100 µM [9]: 92.7%; activity at 100 µM [10]: 88.1%; Percent fungal survival at 100 µM [11]: 77.7%; activity at 100 µM [12]: 112% |
| COc1ccc2c(c1OC)C(=O)OC2C1c2c(cc3c(c2OC)OCO3)CCN1C (centres unmarked) [MMV002780] | 86.6% | 81.3% | 78.1% | 82% | 72.9% | 72.6% | 68.2% | 76.7% | – |
| C[C@H]1CC[C@]2(NC1)O[C@H]1C[C@H]3[C@@H]4CC[C@H]5C[C@@H](O)CC[C@]5(C)[C@H]4CC[C@]3(C)[C@H]1[C@@H]2C [MMV003069] | 98.3% | – | – | – | – | – | – | – | activity at 100 µM [4]: 85.8%; activity at 100 µM [18]: 80.2%; activity at 100 µM [19]: 92.8%; activity at 100 µM [20]: 84.2%; activity at 25 µM (read-out: Percentage survival at 25um, 25 uM B): 98.8%; activity at 25 µM (read-out: Percentage survival at 25um, 25 uM C): 91.1%; activity at 25 µM (read-out: Percentage survival at 25um, 25 uM mean): 96.1% |
| CC[C@H]1OC(=O)[C@H](C)[C@@H](O[C@H]2C[C@@](C)(OC)[C@@H](O)[C@H](C)O2)[C@H](C)[C@@H](O[C@@H]2O[C@H](C)C[C@H](N(C)C)[C@H]2O)[C@](C)(O)C[C@@H](C)C(=O)[C@H](C)[C@@H](O)[C@]1(C)O [MMV003137] | – | – | – | – | – | – | – | – | activity at 25 µM [5]: 82.5%; activity at 25 µM [6]: 94.8%; activity at 25 µM [7]: 79.1%; activity at 25 µM [8]: 73.6%; activity at 100 µM [9]: 79.9%; activity at 100 µM [10]: 78.2%; Percent fungal survival at 100 µM [11]: 73.7%; activity at 100 µM [12]: 87.7% |
| NC(=O)c1cnccn1 [MMV003249] | 89.2% | 75.7% | 84.4% | 83.1% | – | 60% | – | – | activity at 100 µM [18]: 53.7%; Percent fungal survival at 100 µM [19]: 70%; activity at 100 µM [20]: 56.3% |
| Cc1oncc1C(=O)Nc1ccc(C(F)(F)F)cc1 [MMV003291] | 82.1% | 92.4% | 81.5% | 85.3% | 55.9% | 62.5% | 52.4% | 79% | – |
| CC#C[C@]1(O)CC[C@H]2[C@@H]3CCC4=CC(=O)CCC4=C3[C@@H](c3ccc(N(C)C)cc3)C[C@@]21C [MMV003297] | 90.2% | 94.9% | 76.5% | 87.2% | 84.5% | 80.3% | 82.6% | 73.8% | – |
| COc1ccc(C2CNC(=O)C2)cc1OC1CCCC1 (centres unmarked) [MMV003738] | 73% | 88.3% | 90.9% | 84.1% | 78.1% | 75% | 63% | 84% | – |
